Assay type in all cases: functional
One assay relates to Penicillium cyclopium. In words: Fungicidal activity against Penicillium verrucosum var. cyclopium food isolate by microdilution method.
The test system of another assay is Aspergillus fumigatus. In words: Fungicidal activity against Aspergillus fumigatus ATCC 1022 by microdilution method.
In another assay the test system is Talaromyces funiculosus. In words: Fungicidal activity against Penicillium funiculosum ATCC 36839 by microdilution method.
The test system of another assay is Aspergillus ochraceus. In words: Fungicidal activity against Aspergillus ochraceus by microdilution method.
In another assay the test system is Aspergillus niger. In words: Fungicidal activity against Aspergillus niger by microdilution method.
The test system of the next assay is Trichoderma viride. Kind of assay: Fungicidal activity against Trichoderma viride IAM 5061 by microdilution method.
Another assay deals with Penicillium ochrochloron. In words: Fungicidal activity against Penicillium ochrochloron ATCC 9112 by microdilution method.
The test system of another assay is Aspergillus versicolor. Kind of assay: Fungicidal activity against Aspergillus versicolor ATCC 11730 by microdilution method.

Molecules are shown by their SMILES.

Regarding `CC(=O)C1=C(O)C=C2Oc3c(C(C)=O)c(O)c(C)c(O)c3C2(C)C1=O` (stereo not given), the MFC with Penicillium cyclopium was determined as 8.8 ×10⁻² mmol/ml; with Aspergillus fumigatus it was 69.8 ×10⁻² mmol/ml; against Talaromyces funiculosus it was 8.8 ×10⁻² mmol/ml; against Aspergillus ochraceus, 4.4 ×10⁻² mmol/ml; with Aspergillus niger, 8.8 ×10⁻² mmol/ml; against Trichoderma viride, 4.4 ×10⁻² mmol/ml. Moreover, the MFC against Penicillium ochrochloron and in the assay on Aspergillus versicolor was 8.8 ×10⁻² mmol/ml each time.

On to `CC(=O)NCCN/C(C)=C1\C(=O)C=C2Oc3c(C(C)=O)c(O)c(C)c(O)c3[C@@]2(C)C1=O`, for which the MFC with Penicillium cyclopium came to 15.05 ×10⁻² mmol/ml; in the assay with Aspergillus fumigatus, 7.53 ×10⁻² mmol/ml; in the assay on Talaromyces funiculosus, 7.53 ×10⁻² mmol/ml; in the assay with Aspergillus ochraceus, 15.05 ×10⁻² mmol/ml; against Aspergillus niger it was 15.05 ×10⁻² mmol/ml; against Trichoderma viride it was 15.05 ×10⁻² mmol/ml. Moreover, the MFC against Penicillium ochrochloron and with Aspergillus versicolor was 7.53 ×10⁻² mmol/ml in each case.

Turning to `CC(=O)c1c(O)c(C)c(O)c2c1OC1=CC(=O)/C(=C(/C)NCCc3ccc(O)c(O)c3)C(=O)[C@@]12C`, the MFC in the assay on Penicillium cyclopium is on record as 4.17 ×10⁻² mmol/ml; in the assay with Aspergillus fumigatus, 4.17 ×10⁻² mmol/ml; with Talaromyces funiculosus, 4.17 ×10⁻² mmol/ml; in the assay on Aspergillus ochraceus, 2.09 ×10⁻² mmol/ml; against Aspergillus niger, 8.34 ×10⁻² mmol/ml; against Trichoderma viride it was 2.09 ×10⁻² mmol/ml. Further, the MFC against Penicillium ochrochloron and against Aspergillus versicolor was 4.17 ×10⁻² mmol/ml each time.

With `CC(=O)c1c(O)c(C)c(O)c2c1OC1=CC(=O)/C(=C(/C)NCc3nc(N)n[nH]3)C(=O)[C@@]12C`, the MFC with Penicillium cyclopium came out at 8.82 ×10⁻² mmol/ml; with Aspergillus fumigatus, 4.41 ×10⁻² mmol/ml; against Talaromyces funiculosus, 4.41 ×10⁻² mmol/ml; in the assay on Aspergillus ochraceus it was 8.82 ×10⁻² mmol/ml; in the assay with Aspergillus niger, 4.41 ×10⁻² mmol/ml; with Trichoderma viride it was 8.82 ×10⁻² mmol/ml. The MFC in the assay on Penicillium ochrochloron and against Aspergillus versicolor was 4.41 ×10⁻² mmol/ml in each case.

On to `CC(=O)c1c(O)c(C)c(O)c2c1OC1=CC(=O)/C(=C(/C)NCc3noc(C4CCC(=O)N4)n3)C(=O)[C@@]12C` (stereo not given in full), for which the MFC in the assay on Penicillium cyclopium was determined as 3.54 ×10⁻² mmol/ml; with Aspergillus fumigatus it was 3.54 ×10⁻² mmol/ml; against Talaromyces funiculosus, 1.77 ×10⁻² mmol/ml; against Aspergillus ochraceus it was 3.54 ×10⁻² mmol/ml; against Aspergillus niger, 3.54 ×10⁻² mmol/ml; in the assay on Trichoderma viride it was 1.77 ×10⁻² mmol/ml. For the same compound, the results for the MFC in the assay with Penicillium ochrochloron and against Aspergillus versicolor were 1.77 ×10⁻² mmol/ml and 3.54 ×10⁻² mmol/ml, respectively.

In the case of `CC(=O)c1c(O)c(C)c(O)c2c1OC1=CC(=O)/C(=C(/C)NCCc3nc(C)no3)C(=O)[C@@]12C`, the MFC was 3.73 ×10⁻² mmol/ml in the assay on Penicillium cyclopium; 3.73 ×10⁻² mmol/ml with Aspergillus fumigatus; 3.73 ×10⁻² mmol/ml in the assay on Talaromyces funiculosus; 1.87 ×10⁻² mmol/ml with Aspergillus ochraceus; 3.73 ×10⁻² mmol/ml in the assay on Aspergillus niger; 1.87 ×10⁻² mmol/ml in the assay with Trichoderma viride. The MFC with Penicillium ochrochloron and in the assay with Aspergillus versicolor was 3.73 ×10⁻² mmol/ml throughout.

In the case of `COc1ccc2nc(NC(=O)CN/C(C)=C3\C(=O)C=C4Oc5c(C(C)=O)c(O)c(C)c(O)c5[C@@]4(C)C3=O)sc2c1`, the MFC against Penicillium cyclopium amounted to 14.95 ×10⁻² mmol/ml; in the assay on Aspergillus fumigatus, 14.95 ×10⁻² mmol/ml; against Talaromyces funiculosus, 14.95 ×10⁻² mmol/ml; in the assay on Aspergillus ochraceus it was 14.95 ×10⁻² mmol/ml; against Aspergillus niger it was 14.95 ×10⁻² mmol/ml; against Trichoderma viride, 1.77 ×10⁻² mmol/ml. The results for the MFC against Penicillium ochrochloron and with Aspergillus versicolor were 14.95 ×10⁻² mmol/ml and 7.1 ×10⁻² mmol/ml, respectively.

As to `CC(=O)c1c(O)c(C)c(O)c2c1OC1=CC(=O)/C(=C(/C)NCC(=O)NC(CO)C(=O)O)C(=O)[C@@]12C` (stereo not given in full), the MFC with Penicillium cyclopium was 3.69 ×10⁻² mmol/ml; against Aspergillus fumigatus, 3.69 ×10⁻² mmol/ml; against Talaromyces funiculosus, 3.69 ×10⁻² mmol/ml; against Aspergillus ochraceus, 3.69 ×10⁻² mmol/ml; in the assay with Aspergillus niger, 3.69 ×10⁻² mmol/ml; against Trichoderma viride, 1.84 ×10⁻² mmol/ml. Besides, the MFC with Penicillium ochrochloron and with Aspergillus versicolor was 3.69 ×10⁻² mmol/ml in each case.

With `CC(=O)c1c(O)c(C)c(O)c2c1OC1=CC(=O)/C(=C(/C)NCCc3nnc(-c4ccccc4O)o3)C(=O)[C@@]12C`, the MFC against Penicillium cyclopium is 3.01 ×10⁻² mmol/ml; in the assay on Aspergillus fumigatus, 3.01 ×10⁻² mmol/ml; with Talaromyces funiculosus it was 3.01 ×10⁻² mmol/ml; against Aspergillus ochraceus, 1.51 ×10⁻² mmol/ml; against Aspergillus niger, 6.02 ×10⁻² mmol/ml; against Trichoderma viride, 1.51 ×10⁻² mmol/ml. In addition, the MFC in the assay on Penicillium ochrochloron and in the assay with Aspergillus versicolor was 3.01 ×10⁻² mmol/ml in each case.

Take `CC(=O)c1c(O)c(C)c(O)c2c1OC1=CC(=O)/C(=C(/C)NCCn3c(=O)c(O)nc4ccccc43)C(=O)[C@@]12C`: the MFC against Penicillium cyclopium came out at 7.28 ×10⁻² mmol/ml; against Aspergillus fumigatus it was 3.64 ×10⁻² mmol/ml; with Talaromyces funiculosus, 3.64 ×10⁻² mmol/ml; in the assay with Aspergillus ochraceus, 1.82 ×10⁻² mmol/ml; against Aspergillus niger it was 3.64 ×10⁻² mmol/ml; against Trichoderma viride, 1.82 ×10⁻² mmol/ml. Besides, the MFC against Penicillium ochrochloron and against Aspergillus versicolor was 3.64 ×10⁻² mmol/ml each time.

`CC(=O)c1c(O)c(C)c(O)c2c1OC1=CC(=O)/C(=C(/C)NCCS(N)(=O)=O)C(=O)[C@@]12C`: the MFC is 7.1 ×10⁻² mmol/ml with Penicillium cyclopium; 7.1 ×10⁻² mmol/ml against Aspergillus fumigatus; 7.1 ×10⁻² mmol/ml in the assay on Talaromyces funiculosus; 3.55 ×10⁻² mmol/ml against Aspergillus ochraceus; 7.1 ×10⁻² mmol/ml in the assay with Aspergillus niger; 3.55 ×10⁻² mmol/ml in the assay on Trichoderma viride. Moreover, the MFC in the assay with Penicillium ochrochloron and against Aspergillus versicolor was 7.1 ×10⁻² mmol/ml each time.

Consider `CC(=O)c1c(O)c(C)c(O)c2c1OC1=CC(=O)/C(=C(/C)NCC(=O)Nc3nccs3)C(=O)[C@@]12C`, for which the MFC came to 3.72 ×10⁻² mmol/ml in the assay with Penicillium cyclopium; 3.72 ×10⁻² mmol/ml with Aspergillus fumigatus; 3.72 ×10⁻² mmol/ml with Talaromyces funiculosus; 1.86 ×10⁻² mmol/ml in the assay on Aspergillus ochraceus; 1.86 ×10⁻² mmol/ml against Aspergillus niger; 3.72 ×10⁻² mmol/ml in the assay with Trichoderma viride. Also, the MFC with Penicillium ochrochloron and in the assay with Aspergillus versicolor was 3.72 ×10⁻² mmol/ml in each case.

On to `COCCc1noc(CCN/C(C)=C2\C(=O)C=C3Oc4c(C(C)=O)c(O)c(C)c(O)c4[C@@]3(C)C2=O)n1`, for which the MFC was determined as 4.02 ×10⁻² mmol/ml in the assay with Penicillium cyclopium; 4.02 ×10⁻² mmol/ml in the assay on Aspergillus fumigatus; 4.02 ×10⁻² mmol/ml in the assay on Talaromyces funiculosus; 2.01 ×10⁻² mmol/ml in the assay on Aspergillus ochraceus; 4.02 ×10⁻² mmol/ml in the assay on Aspergillus niger; 2.01 ×10⁻² mmol/ml against Trichoderma viride. Also, the MFC in the assay on Penicillium ochrochloron and against Aspergillus versicolor was 4.02 ×10⁻² mmol/ml in each case.

On to `c1ccc(-c2ccc(C(c3ccccc3)n3ccnc3)cc2)cc1` (stereo not given) [BIFONAZOLE], for which the MFC with Penicillium cyclopium amounted to 48 ×10⁻² mmol/ml; in the assay on Aspergillus fumigatus, 64 ×10⁻² mmol/ml; in the assay with Talaromyces funiculosus, 80 ×10⁻² mmol/ml; against Aspergillus ochraceus, 80 ×10⁻² mmol/ml; against Aspergillus niger, 64 ×10⁻² mmol/ml; against Trichoderma viride, 80 ×10⁻² mmol/ml. The MFC against Penicillium ochrochloron and in the assay on Aspergillus versicolor was 64 ×10⁻² mmol/ml each time.

In the case of `CC(=O)N1CCN(c2ccc(OCC3COC(Cn4ccnc4)(c4ccc(Cl)cc4Cl)O3)cc2)CC1` (stereo not given) [KETOCONAZOLE], the MFC is given as 94 ×10⁻² mmol/ml against Penicillium cyclopium; 95 ×10⁻² mmol/ml in the assay with Aspergillus fumigatus; 95 ×10⁻² mmol/ml with Talaromyces funiculosus; 95 ×10⁻² mmol/ml in the assay on Aspergillus ochraceus; 95 ×10⁻² mmol/ml against Aspergillus niger; 570 ×10⁻² mmol/ml in the assay on Trichoderma viride. In addition, the MFC against Penicillium ochrochloron and against Aspergillus versicolor was 380 ×10⁻² mmol/ml throughout.

The values above are taken from ChEMBL document CHEMBL4257506, “Design, synthesis and antimicrobial activity of usnic acid derivatives” (2018).
